Data: PMC10742508, “The Structure and Nucleotide-Binding Characteristics of Regulated Cystathionine β-Synthase Domain-Containing Pyrophosphatase without One Catalytic Domain” (International Journal of Molecular Sciences, 2023)

Assays:
Type in all cases: binding
[1] = target: T1, ΔdhPPase (Desulfitobacterium hafniense, UniProt B8FP42, DEL425-544); assay: isothermal titration calorimetry, single-site model; settings: read-out: KN
T1 construct: gene Dhaf_1515
T1 sequence (B8FP42 1-423): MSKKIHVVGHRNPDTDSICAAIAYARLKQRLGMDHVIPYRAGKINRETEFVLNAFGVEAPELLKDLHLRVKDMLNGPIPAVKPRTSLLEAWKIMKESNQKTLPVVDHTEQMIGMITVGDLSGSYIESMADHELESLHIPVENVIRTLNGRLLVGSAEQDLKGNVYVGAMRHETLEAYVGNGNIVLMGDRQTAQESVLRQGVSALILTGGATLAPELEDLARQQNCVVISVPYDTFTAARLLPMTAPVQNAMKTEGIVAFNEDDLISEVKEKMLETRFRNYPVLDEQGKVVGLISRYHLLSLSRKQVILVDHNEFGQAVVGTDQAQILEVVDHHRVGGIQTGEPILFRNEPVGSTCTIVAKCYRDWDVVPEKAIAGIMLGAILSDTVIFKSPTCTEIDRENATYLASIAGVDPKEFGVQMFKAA
Source text: isothermal titration calorimetry, single-site model on ΔdhPPase

[2] = target: T2, CDC (separate regulatory part of dhPPase) (Desulfitobacterium hafniense, UniProt B8FP42); assay: ThermoFluor, SYPRO Orange; settings: 2 mM MgCl2, 0.1 mM CoCl2, 150 mM KCl, pH 7.2
T2 construct: gene Dhaf_1515; regulatory insert only (CBS1-DRTGG-CBS2)
Source text: ThermoFluor, SYPRO Orange on CDC (separate regulatory part of dhPPase)

[3] = target: T3, dhPPase (full-size CBS-PPase) (Desulfitobacterium hafniense, UniProt B8FP42); assay: isothermal titration calorimetry, single-site model; settings: read-out: KN
T3 construct: gene Dhaf_1515
Source text: isothermal titration calorimetry, single-site model on dhPPase (full-size CBS-PPase)

[4] = target: T4, ΔdhPPase (Desulfitobacterium hafniense, UniProt B8FP42); assay: ThermoFluor, SYPRO Orange; settings: 200 µM AMP, 2 mM MgCl2, 0.1 mM CoCl2, 150 mM KCl, pH 7.2; peak II = regulatory part
T4 construct: gene Dhaf_1515
T4 sequence (B8FP42 1-423): T1 sequence (B8FP42 1-423)
Source text: ThermoFluor, SYPRO Orange on ΔdhPPase

[5] = target: T3, dhPPase (full-size CBS-PPase); assay: ThermoFluor, SYPRO Orange; settings: 200 µM AMP, 2 mM MgCl2, 0.1 mM CoCl2, 150 mM KCl, pH 7.2; peak II = regulatory part
Source text: ThermoFluor, SYPRO Orange on dhPPase (full-size CBS-PPase)

T3 sequence (B8FP42 entry or part of it): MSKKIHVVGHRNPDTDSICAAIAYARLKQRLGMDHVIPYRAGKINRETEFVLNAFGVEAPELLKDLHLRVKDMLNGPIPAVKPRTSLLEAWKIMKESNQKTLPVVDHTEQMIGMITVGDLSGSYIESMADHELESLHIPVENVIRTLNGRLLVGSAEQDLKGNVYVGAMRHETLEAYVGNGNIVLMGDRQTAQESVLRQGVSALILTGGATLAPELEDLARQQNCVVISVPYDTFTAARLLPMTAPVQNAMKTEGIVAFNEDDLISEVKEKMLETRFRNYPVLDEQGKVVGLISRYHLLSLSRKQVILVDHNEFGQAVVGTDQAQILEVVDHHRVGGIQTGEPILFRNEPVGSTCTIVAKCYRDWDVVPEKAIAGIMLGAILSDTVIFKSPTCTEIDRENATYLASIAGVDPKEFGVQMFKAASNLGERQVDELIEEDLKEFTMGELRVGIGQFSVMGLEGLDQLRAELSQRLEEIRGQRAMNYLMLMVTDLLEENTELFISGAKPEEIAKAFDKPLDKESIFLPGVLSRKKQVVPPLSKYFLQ

| SMILES | Kd [1] [nM] | Tm, °C / CDC ([2]; 20 µM Ap4A) [°C] | Kd [3] [nM] | Tm, °C / ΔdhPPase [4] [°C] | Tm, °C / CDC ([2]; 200 µM AMP) [°C] | Tm, °C / dhPPase [5] [°C] |
| --- | --- | --- | --- | --- | --- | --- |
| Nc1ncnc2c1ncn2[C@@H]1O[C@H](COP(=O)(O)OP(=O)(O)OP(=O)(O)OP(=O)(O)OC[C@H]2O[C@@H](n3cnc4c(N)ncnc43)[C@H](O)[C@@H]2O)[C@@H](O)[C@H]1O [Ap4A] | < 10 | 61.5 | 10 to 100 |  |  |  |
| Nc1ncnc2c1ncn2[C@@H]1O[C@H](COP(=O)(O)O)[C@@H](O)[C@H]1O [AMP] |  |  |  | 68.6 | 66.5 | 67.4 |
